Data from article PMC11062894, “Protein-based bandpass filters for controlling cellular signaling with chemical inputs” (Nature Chemical Biology, 2023).
Several values for one entry are separate records, joined by “and”; a condition that tells them apart may be missing. Equal entries are not always repeated.

Test system: GEMS receptors with CBPA11 (BclXL–LD3 and BclXLhigh variants), STAT3-driven SEAP in HEK293T cells
Test: GEMS SEAP reporter assay, CBPA11 (BclXLhigh, LD3-v and BclXL-v variants) with A-1155463
Assay type: cell-based
Set-up: key to Raw data (SEAP) / SEAP, replicate values / Raw data of Figure 5b / Raw data Figure 5e / Raw data of Independent repeat of CBPA11-v1 vs CBPA11-v1-LD3v3 / Raw data of Independent repeat of CBPA11-v3 vs CBPA11-v3-LD3v3 / Raw data of Figure 5b, CBPA11-v1-LD3v3 (SEAP reporter raw value, single replicate) / Raw data of Figure 5b, CBPA11-v1 (SEAP reporter raw value, single replicate): SEAP activity in U/L in culture supernatant
Conditions: for SEAP (U/L): Figure 4d, representative data and independent repeats 1, 2 (triplicates); for Normalized data (SEAP) / Raw data (SEAP): SuppFigure 9a
Description: To rationally design a CBP responding to a chemical input, we used BclXL as the druglow receptor, LD3 as the designed binder and a designed BclXL variant as the drughigh receptor (referred to as BclXLhigh) to construct a CBP responsive to BclXL inhibitors (Fig. 4a). To design BclXLhigh, we used a multistate design computational protocol described elsewhere[26] […] Thus, BclXLhigh-v(1–3) were chosen as the functional drughigh receptors, resulting in three A-1155463-controlled CBPs (referred to as CBPA11-v(1–3)) (Fig. 4c–e).
HEK293T cells were seeded in a 96-well plate 24 h before transfection. The transfection mix in each well consisted of 3 ng of constitutive human CMV promoter driven mammalian STAT3 expression vector (PhCMV-STAT3-pA), 30 ng of STAT3-induced reporter expression (OStat3-PhCMVmin-SEAP-pA) and 50 ng of expression vectors for each GEMS receptor chain (PSV40-IgK-(drughigh receptor)-EpoRm-IL-6RBm-pA and PSV40-IgK-(druglow receptor-GGGGSX3-LD3)-EpoRm-IL-6RBm-pA). For the specific drughigh receptor and druglow receptor used in the different cellular assays, they are indicated as wild type or with mutations. Then, plasmid DNA was mixed with 50 μl opti-MEM (Thermo Fisher) and 600 ng of polyethyleneimine (Polysciences, catalog no. 24765-1). For drug treatment experiments, drugs were added 12 h post-transfection and incubated with cells for 24 h before the SEAP reporter detection assay.
SEAP activity (U l^−1) in cell culture supernatants was quantified by kinetic measurements at 405 nm (1 minute per measurement for 30 cycles) of absorbance increase due to phosphatase-mediated hydrolysis of para-nitrophenyl phosphate (pNPP).
Binding affinities of SPR drug competition assays were calculated using three-parameter nonlinear regression in GraphPad Prism (v.8.3.0). Representative data of cell assays are presented as individual values and mean values (bars). n = 3 refers to biological replicates. All IC50 or EC50 values of cell assays reported were calculated using four-parameter nonlinear regression ± s.d. Bandpass features of cutoff concentrations and Bandwidth90% were estimated based on the curve fitted using bell-shaped curve nonlinear regression in GraphPad Prism (v.8.3.0). […]
Supplementary Figure 4: Design, screening and validation of BclXLhigh variants. a) Screening of BclXLhigh variants in the GEMS platform. […]
Dissociation constant measurement of BclXLhigh-v(1-3) and LD3. Equilibrium curves are fitted using […]
BclXLhigh-v1 (purple), BclXLhigh-v2 (blue), […]
a) Bcl2high-based bandpass filter designs were developed and to respond to different concentrations of […]
corresponding inhibitor. c) Screening of Bcl2high-based bandpass filter variants in the GEMS platform.
The designed binder LD3 was fused to the druglow-receptor (PSV40-IgK-Bcl2-LD3-EpoRm-IL-6RBm-pA) in one EpoR chain and Bcl2high variants with the insensitive Bcl2 (iBcl2) as control in the other EpoR chain (PSV40-IgK-Bcl2high-EpoRm-IL-6RBm-pA). HEK293T cells were transfected with indicated […]
the mean of six biological replicates ± s.d., overlaid with a scatter dot plot of the original data points.
(1 picture or pasted object on this page, not shown here)
Supplementary Figure 6: Binding affinities and drug resistances of Bcl2high-v(2,4,5) assessed by […]
a) Measurement of dissociation constants for Bcl2high-v(2,4,5) and LD3 interactions. Equilibrium curves […]
Bcl2high-v(2,4,5) measured by SPR. 5 μM of Bcl2 or indicated variants were mixed with 10 μM of […]
Bcl2high-v2 (red), Bcl2high-v4
Supplementary Figure 7: Screening of LD3 variants in CBPA11-v(1-3) and raw data of CBPA11-v(1,3) with LD3-v3 variant. a-c) Screening of LD3 and LD3-v(1-3) variants in complex with BclXL for more sensitive CBPA11-v1 (a), CBPA11-v2 (b), CBPA11-v3 (c) in the GEMS platform. The LD3 variants replaced the role of LD3 (PSV40-IgK-BclXL-LD3-v(1-3)-EpoRm-IL-6RBm-pA) in one EpoR chain and BclXLhigh-v(1-3) in the other EpoR chain (PSV40-IgK-BclXLhigh-V(1-3)-EpoRm-IL-6RBm-pA). HEK293T cells were transfected with […]

[1] = CBPA11-v3-LD3v3, A-1155463 10000 nM

CN(C)CC#Cc1ccc(OCCCc2sc(N3CCc4cccc(C(=O)Nc5nc6ccccc6s5)c4C3)nc2C(=O)O)c(F)c1 [A-1155463]
Normalized data of Figure 5b [1]: 13.381 and 8.285 and 13.0686
Raw data of Figure 5b [1]: 11.3652 and 7.762 and 13.9821
SEAP (U/L) (A-1155463 1 nM): 8.303 U/L and 10.1289 U/L and 7.12 U/L and 9.7586 U/L and 8.864 U/L and 9.857 U/L
SEAP (U/L) (A-1155463 3.16 nM): 6.744 U/L and 8.922 U/L and 8.703 U/L and 12.2331 U/L and 8.658 U/L and 8.903 U/L
Normalized data (SEAP) (BclXL-v1, A-1155463 1 nM): 9.876
Raw data (SEAP) (BclXL-v1, A-1155463 1 nM): 9.508
Normalized data (SEAP) (BclXL-v1, A-1155463 3.16 nM): 8.253
Raw data (SEAP) (BclXL-v1, A-1155463 3.16 nM): 7.946
Normalized data (SEAP) (BclXL-v1, A-1155463 100 nM): 78.5603
Raw data (SEAP) (BclXL-v1, A-1155463 100 nM): 75.6338
Normalized data (SEAP) (BclXL-v1, A-1155463 316 nM): 100
Raw data (SEAP) (BclXL-v1, A-1155463 316 nM): 96.2749
Normalized data (SEAP) (BclXL-v1, A-1155463 1000 nM): 71.1878
Raw data (SEAP) (BclXL-v1, A-1155463 1000 nM): 68.536
Normalized data (SEAP) (BclXL-v1, A-1155463 3160 nM): 30.3077
Raw data (SEAP) (BclXL-v1, A-1155463 3160 nM): 29.1787
Normalized data (SEAP) (BclXL-v1, A-1155463 10000 nM): 12.5367
Raw data (SEAP) (BclXL-v1, A-1155463 10000 nM): 12.0697
Normalized data (SEAP) (BclXL-v2, A-1155463 1 nM): 3.201
Raw data (SEAP) (BclXL-v2, A-1155463 1 nM): 9.801
Normalized data (SEAP) (BclXL-v2, A-1155463 3.16 nM): 2.258
Raw data (SEAP) (BclXL-v2, A-1155463 3.16 nM): 6.914
Normalized data (SEAP) (BclXL-v2, A-1155463 100 nM): 100
Raw data (SEAP) (BclXL-v2, A-1155463 100 nM): 306.188
Normalized data (SEAP) (BclXL-v2, A-1155463 316 nM): 84.9937
Raw data (SEAP) (BclXL-v2, A-1155463 316 nM): 260.24
Normalized data (SEAP) (BclXL-v2, A-1155463 1000 nM): 53.3071
Raw data (SEAP) (BclXL-v2, A-1155463 1000 nM): 163.22
Normalized data (SEAP) (BclXL-v2, A-1155463 3160 nM): 38.1484
Raw data (SEAP) (BclXL-v2, A-1155463 3160 nM): 116.806
Normalized data (SEAP) (BclXL-v2, A-1155463 10000 nM): 23.1544
Raw data (SEAP) (BclXL-v2, A-1155463 10000 nM): 70.8961
Normalized data (SEAP) (BclXL-v3, A-1155463 1 nM): 38.0177
Raw data (SEAP) (BclXL-v3, A-1155463 1 nM): 3.662
Normalized data (SEAP) (BclXL-v3, A-1155463 3.16 nM): 36.4228
Raw data (SEAP) (BclXL-v3, A-1155463 3.16 nM): 3.509
Normalized data (SEAP) (BclXL-v3, A-1155463 100 nM): 68.011
Raw data (SEAP) (BclXL-v3, A-1155463 100 nM): 6.552
Normalized data (SEAP) (BclXL-v3, A-1155463 316 nM): 43.5621
Raw data (SEAP) (BclXL-v3, A-1155463 316 nM): 4.196
Normalized data (SEAP) (BclXL-v3, A-1155463 1000 nM): 47.9459
Raw data (SEAP) (BclXL-v3, A-1155463 1000 nM): 4.619
Normalized data (SEAP) (BclXL-v3, A-1155463 3160 nM): 98.7391
Raw data (SEAP) (BclXL-v3, A-1155463 3160 nM): 9.512
Normalized data (SEAP) (BclXL-v3, A-1155463 10000 nM): 92.8941
Raw data (SEAP) (BclXL-v3, A-1155463 10000 nM): 8.949
Normalized data (SEAP) (BclXL, A-1155463 1 nM): 5.357
Raw data (SEAP) (BclXL, A-1155463 1 nM): 23.0325
